# Measurements: patent US6696475B2, “Substituted phenyl derivatives, their preparation and use” (NeuroSearch A/S, priority 1997, dated 2004)
# Key:
# [1] = molecular target: erythrocyte chloride channels; test: Cl- conductance (GCl) from conductive netfluxes of Cl- and membrane potentials in suspensions of normal erythrocytes; format: cell-based, Human; conditions: suspension of normal erythrocytes; for Kd: read-out: KD-value for block of GCl
# Description: (§1) The compounds of the present invention are potent blockers of chloride channels in normal as well as sickle cell erythrocytes.
# (§2) All dose-response experiments were therefore performed by concomitant measurements of conductive neffluxes of Cl^− (JCl) and membrane potentials (Vm) in suspensions of erythrocytes (Bennekou, P. and Christophersen, P. (1986), Flux ratio of Valinomycin—Mediated K^+ Fluxes across the Human Red Cell Membrane in the presence of the Protronophore CCCP. J. Membrane Biol. 93, 221-227. ). The membrane Cl^− conductances (GCl) were calculated by the following equation (Hodgkin, A. L. and Huxley, A. F. (1952) The components of membrane conductance in the giant axon of Loligo. J. Physiol. Lond. 116, 449-472): [formula]
# (§3) where F is the Faraday constant, ECl is the Nernst potential for the Cl-ion.
# [2] = system: erythrocyte chloride channels (homozygoteous sickle cell erythrocytes); test: Cl- conductance (GCl) in sickle cell erythrocytes; format: cell-based, Human; conditions: oxygenated as well as deoxygenated homozygoteous sickle cell erythrocytes
# Description: as §1, §2, §3
# erythrocytes = test: Valinomycin induced cell volume loss, relative volume of packed cells; format: cell-based; conditions: valinomycin for 5 min; volume loss 26% without compound
# Protocol: Inducing a massive water and salt loss (KCl) by addition the K^+-ionophore valinomycin to the suspension for 5 min reduced the cell volume by 26%.
# Normal erythrocytes = test: K+-flux from normal erythrocytes, extracellular K+-concentration vs time; format: cell-based; conditions: 10 μM
# Description: (§4) Deoxygenation induced permeability increases of sickle cells were estimated by measuring the extracellular K^+-concentration vs time. […] The K^+ flux from oxygenated sickle erythrocytes was 2-3 times higher than from normal erythrocytes and these fluxes was accelerated 4-8 times upon deoxygenation.
# sickle erythrocytes = test: Deoxygenation induced permeability increase of sickle cells, extracellular K+-concentration vs time; format: cell-based; conditions: 10 μM
# Description: as §4
# mice = conditions: mouse, in vivo
# Protocol: (§5) 3-Trifluoromethylphenyl-2-carboxyphenyl urea is non-toxic to mice and rats at concentrations up to 250 mg/kg i.p. and i.v.
# rats = conditions: rat, in vivo
# Protocol: as §5
# bone resorbtion = conditions: in vitro; cited from earlier work
# bone degration = conditions: growing yound rats; cited from earlier work
# proton pump = conditions: cited from earlier work
smiles,measurement,setting,value
O=C(Nc1cccc(C(F)(F)F)c1)Nc1ccc(Br)cc1-c1nnn[nH]1 [3-Trifluoromethylphenyl-4-bromo-2-(5-tetrazolyl)phenyl Urea],Kd,[1],1900 nM
O=C(Nc1cccc(C(F)(F)F)c1)Nc1ccccc1C(=O)O [N-3-Trifluoromethylphenyl-N′-2-carboxyphenyl Urea],block of GCl,[1],more than 95%
same,Kd,[1],1300 nM
same,block of GCl compared with normal erythrocytes,[2],equipotently blocked
same,cell volume loss in presence of compound,erythrocytes,7%
same,effect on K+-fluxes of normal erythrocytes,Normal erythrocytes,insensitive
same,basal K+-flux from sickle erythrocytes,sickle erythrocytes,normalised
same,deoxygenation induced K+ flux component,sickle erythrocytes; deoxygenated sickle erythrocytes,nearly abolished
same,non-toxic dose,mice,up to 250 mg/kg
same,non-toxic dose,rats,up to 250 mg/kg
"CN(C)S(=O)(=O)c1ccc(-c2ccc(NC(=O)Nc3cccc(C(F)(F)F)c3)c(-c3nnn[nH]3)c2)cc1 [N-(3-Trifluoromethylphenyl)-N′-(4′-(N,N-dimethylsulfamoyl)-2-(1-H-tetrazol-5-yl)-4-biphenyl) urea]",Kd,[1],300 nM
same,melting point,,258 to 260 °C
CC(=O)Nc1nnc(S(N)(=O)=O)s1 [acetacolamide],"effect on bone resorbtion, pit formation",bone resorbtion,effective
CO/C1=C\C(C)=C\[C@@H](C)[C@@H](O)[C@@H](C)C/C(C)=C/C=C/[C@H](OC)[C@@H]([C@@H](C)[C@@H](O)[C@H](C)[C@@]2(O)C[C@@H](O)[C@H](C)[C@@H](C(C)C)O2)OC1=O [bafilomycin A1],"effect on bone resorbtion, pit formation",bone resorbtion,completely eliminates
same,effect on bone degration,bone degration,depresses
same,block of the proton pump,proton pump,"extremely potent, reversible inhibitor"
COc1ccc2[nH]c([S+]([O-])Cc3ncc(C)c(OC)c3C)nc2c1 (centres unmarked) [omeprazol],block of the proton pump,proton pump,ineffective
